Assay results published in patent publication US20170101385A1, “NOVEL ISOXAZOLES, A PROCESS FOR THEIR PREPARATION AND USES THEREOF” (Sanko Tekstil Isletmeleri San. Ve Tic. A.S., priority 2015, published 2017).

System: Staphylococcus aureus ATCC 6538
Test: Antibacterial test on treated fabric (AATCC 147:2011; washing standard BS EN ISO 6330 5A)
Type: cell-based
Set-up: key to Bacteria Growth: (—): no bacterial colonies directly under the treated sample in the contact area were observed
Settings: 37° C. ± 2° C., 18-24 hrs, no washing; for Bacteria Growth: directly under the treated fabric sample in the contact area; for Inhibition Zone (width of clear zone of inhibition): woven fabric treated with the compound, sample 25 × 50 mm
Protocol: In order to determine if the antimicrobic activity of the textile fabrics, Washing Standart: BS EN ISO 6330 5A and Antibacterial Test Standart: AATCC 147:2011 were followed. Details of the method are given in the experimental section of the description.
• Antibacterial tests were carried out using Washing Standart: BS EN ISO 6330 5A, and Antibacterial Test Standart: AATCC 147:2011.

Compound	Bacteria Growth	Inhibition Zone (width of clear zone of inhibition) [mm]
Cc1cc(/N=C/c2cccc3ccccc23)on1 [Example 1, 3-methyl-N-(1-naphthalenylmethylen)-5-isoxazolamine]	(—)	0
Cc1cc(/N=C/c2ccc3ccccc3c2)on1 [Example 2, 3-methyl-N-(2-naphthalenylmethylen)-5-isoxazolamine]	(—)	0
Cc1cc(/N=C/c2cc3ccccc3c3ccccc23)on1 [Example 3, 3-methyl-N-(9-phenanthrenylmethylen)-5-isoxazolamine]	(—)	0
